# In US20100081632A1, “High-content and high throughput assays for identification of lipid-regulating pathways, and novel therapeutic agents for lipid disorders” (Odyssey Thera, Inc., priority 2008, published 2010):
# Legend:
# PCSK9/LDLR complex = experiment: PCSK9/LDLR protein complementation assay (PCA) in transfected HEK293 cells; format: cell-based, human
# Protocol: In one of the embodiments of the invention, the cell-based assay consists of transfected cDNAs encoding full-length PCSK9 and LDL receptor, each sequence linked in-frame to rationally designed fragments of a variant of green fluorescent protein. These two plasmid constructs were co-expressed in human HEK cells plated in 384-well poly-lysine coated plates. After 24-48 hours of incubation, drugs (or vehicle controls) were added to the media, and the existence and localization of PCSK9/LDL receptor complexes was quantified on an Opera automated confocal fluorescence microscopy platform (Perkin Elmer). Images were subjected to automated image analysis, and results quantified and subjected to statistical analysis.
# HEK 293T cells were seeded in normal growth media containing DMEM and 10% FBS at 1.5×10^4 in PDL-coated 96-well plates 24 hours prior to transfection. Cells were transfected with 50 ng of each construct DNA per well with Fugene 6, using conditions recommended by the manufacturer. Cells were allowed to express the construct pairs for 24- or 48 h, then the cells were simultaneously fixed and stained with either a 1:300 dilution of Hoescht 33342 (Molecular Probes, Eugene, Oreg.) or a 1:1000 dilution of Draq5 (Biostatus, Shepshed, Leicestershire, U.K.) in 4% formaldehyde for 15 minutes at room temperature. The cells were washed to remove fixative, and overlaid with a small volume of Hank's Buffered Salt Solution. Images were acquired on a Discovery-1 (Molecular Devices) epifluorescence microscope using the 20× objective, and DAPI and FITC filter sets. (with excitation at 350 and 488 nm wave lengths) or on an Opera (Perkin Elmer) confocal microscope using the 20× water objective with the following excitation and emission settings: Ex 488 nm/Em 535 nm (YFP) and Ex 635 nm/Em 640 nm (Draq5).
# To test for in vitro PCSK9 function and activity, we developed a protein complementation assay (PCA) with PCSK9-IFP2 and the LDL-IFP1 receptor (PCSK9/LDLR). Expression of wild type PCSK9-IFP2 in transfected HEK293 cells was confirmed by Western blot using an antibody against YFP (FIG. 2). Cotranfection of HEK cells with increasing ratios of PCSK9-IFP2 and LDLR-IFP1 DNA constructs results in increased PCA signal (FIG. 3) but not when each construct is expressed alone. The intracellular localization of the wild-type PCSK9-IFP2/LDLR-IFP1 PCA interaction is similar to the known localization of wild type PCSK9 in the endoplasmic reticulum (ER) and post-ER compartments in various cell types (20, 21). The PCA signal for the PCSK9-IFP2/LDLR-IFP1 pair appears to be localized to multiple intracellular trafficking sites including the ER, endosomes and the cell surface.
# In order to test the viability of using the PCSK9-IFP2/LDLR-IFP1 PCA as a drug discovery tool, we tested a drug plate containing 50 known drugs at 3 doses in the assay (Table 10) as well as several protein kinase inhibitors (representative compounds are depicted in Table 11). […] We observed the following effects of known compounds on the PCSK9/LDLR complex:
# A collection of small molecular weight compounds was screened. […] To expand on this observation, we characterized the effects of a larger panel of kinase inhibitors on the PCSK9/LDLr complex. 47 compounds representing a broad range of known receptor tyrosine and serine-threonine kinase inhibitors were assessed (table 2). A subset was identified that had inhibitory effects on the PCSK9/LDLr complex (degree of assay inhibition relative to control is indicated by “% control”, Table 2).
# HepG2 cells = experiment: LDL uptake in HepG2 cells (human LDL conjugated to DyLight 549); format: cell-based; conditions: for x-fold increase (hepatic LDL uptake): HepG2
# Excerpt: The assay uses human LDL conjugated to DyLight™ 549 as a fluorescent probe for detection of LDL uptake into HepG2 cells.
# We assessED whether compounds that inhibit the PCSK9/LDLr assay would have activity on LDL uptake and metabolism in a relevant cell type. PCSK9 is thought to be a negative regulator of LDLr. Thus, we predicted that compounds inhibiting the PCSK9 PCA signal would increase LDL receptor expression and LDL uptake. An assay using human LDL conjugated to DyLight™ 549 as a fluorescent probe for detection of LDL uptake into cultured human hepatocytes. A separate assay, using an LDL receptor-specific polyclonal antibody and a DyLight™ 488-conjugated secondary antibody, was also performed to localize LDL receptors
# Quantitation of the increased LDL uptake of these and other kinase inhibitors targeting Akt, mTOR, p38, GSK3 and VEGF is shown in Table 4.
molecule,measurement,setting,value
"CC[n+]1c(/C=C/N(C)c2ccccc2)n(-c2ccccc2)c2ccc(-c3nc4ccccc4s3)cc21 [Akt Inhibitor IV, 5-(2-Benzothiazolyl)-3-ethyl-2-[2-(methylphenylamino)ethenyl]-1-phenyl-1H-benzimidazolium iodide]",% Control (PCSK9/LDLr PCA),PCSK9/LDLR complex; dose 1 μM,65%
same,% Control (PCSK9/LDLr PCA),PCSK9/LDLR complex; dose 3 μM,40%
same,% Control (PCSK9/LDLr PCA),PCSK9/LDLR complex; dose 10 μM,56%
"CCN(CC)CCCCN1c2ccccc2Oc2ccc(Cl)cc21.Cl [Akt Inhibitor X, 10-(4′-(N-diethylamino)butyl)-2-chlorophenoxazine, HCl]",x-fold increase (LDL uptake in Hepg2 cells),HepG2 cells; dose 1 μM,1.4 x-fold
same,x-fold increase (hepatic LDL uptake),HepG2 cells; dose 1 µM,1.4 x-fold
same,x-fold increase (LDL uptake in Hepg2 cells),HepG2 cells; dose 3 μM,1.7 x-fold
same,x-fold increase (hepatic LDL uptake),HepG2 cells; dose 3 µM,1.7 x-fold
CN(C)CCC=C1c2ccccc2CCc2ccccc21 [Amitryptyline],% Control (PCSK9/LDLr PCA),PCSK9/LDLR complex; dose 100 μM,48%
C=C1CC[C@@H]2[C@](C)(CO)CCC[C@@]2(C)[C@@H]1CCC1=CCOC1=O [Andrograpanin],% Control (PCSK9/LDLr PCA),PCSK9/LDLR complex; dose 100 μM,40%
C=C1CC[C@@H]2[C@](C)(CO)[C@H](O)CC[C@@]2(C)[C@@H]1C/C=C1/C(=O)OC[C@H]1O [Andrographolide],% Control (PCSK9/LDLr PCA),PCSK9/LDLR complex; dose 100 μM,43%
CN(C)CCCN1c2ccccc2CCc2ccc(Cl)cc21 [Clomipramine],% Control (PCSK9/LDLr PCA),PCSK9/LDLR complex; dose 50 μM,46%
C=C1[C@@H](C)[C@H]2[C@H](Cc3ccccc3)NC(=O)[C@]23OC(=O)/C=C/[C@H](O)CCC[C@@H](C)C/C=C/[C@H]3[C@@H]1O [Cytochalasin B],% Control (PCSK9/LDLr PCA),PCSK9/LDLR complex; dose 2 μM,53%
COc1cc2ncnc(Nc3ccc(F)c(Cl)c3)c2cc1OCCCN1CCOCC1 [Gefitinib],% Control (PCSK9/LDLr PCA),PCSK9/LDLR complex; dose 100 μM,53%
CN(C)CCCN1c2ccccc2CCc2ccccc21 [Imipramine],% Control (PCSK9/LDLr PCA),PCSK9/LDLR complex; dose 150 μM,46%
CCc1cc(-c2oncc2-c2ccc(OC)cc2)c(O)cc1OC [KRIBB3],x-fold increase (LDL uptake in Hepg2 cells),HepG2 cells; dose 1 μM,1.3 x-fold
same,x-fold increase (hepatic LDL uptake),HepG2 cells; dose 1 µM,1.3 x-fold
same,x-fold increase (LDL uptake in Hepg2 cells),HepG2 cells; dose 3 μM,1.6 x-fold
same,x-fold increase (hepatic LDL uptake),HepG2 cells; dose 3 µM,1.6 x-fold
O=c1cc(N2CCNCC2)oc2c(-c3ccccc3)cccc12 [LY 303511],x-fold increase (LDL uptake in Hepg2 cells),HepG2 cells; dose 3 μM,1.4 x-fold
same,x-fold increase (LDL uptake in Hepg2 cells),HepG2 cells; dose 30 μM,2.1 x-fold
same,x-fold increase (hepatic LDL uptake),HepG2 cells; dose 30 µM,2.1 x-fold
same,x-fold increase (hepatic LDL uptake),HepG2 cells; dose 3 µM,1.4 x-fold
Cc1c(OCC(F)(F)F)ccnc1C[S+]([O-])c1nc2ccccc2[nH]1 (centres unmarked) [Lanzoprazole],effect on formation of PCSK9/LDLR complexes / PCA signal (in words),PCSK9/LDLR complex,inhibit the formation of PCSK9/LDLR complexes
same,% Control (PCSK9/LDLr PCA),PCSK9/LDLR complex; dose 100 μM,53%
CS(=O)(=O)CCNCc1ccc(-c2ccc3ncnc(Nc4ccc(OCc5cccc(F)c5)c(Cl)c4)c3c2)o1 [Lapatinib],effect on LDL uptake (in words),"HepG2 cells; HepG2, 10 μM",dramatic increase in LDL uptake
same,x-fold increase (LDL uptake in Hepg2 cells),HepG2 cells; dose 10 μM,1.8 x-fold
same,x-fold increase (hepatic LDL uptake),HepG2 cells; dose 10 µM,1.8 x-fold
same,x-fold increase (LDL uptake in Hepg2 cells),HepG2 cells; dose 30 μM,1.9 x-fold
same,x-fold increase (hepatic LDL uptake),HepG2 cells; dose 30 µM,1.9 x-fold
O=NN(CCCl)C(=O)NC1CCCCC1 [Lomustine],% Control (PCSK9/LDLr PCA),PCSK9/LDLR complex; dose 50 μM,50%
same,% Control (PCSK9/LDLr PCA),PCSK9/LDLR complex; dose 150 μM,54%
CCOC(=O)N1CCC(=C2c3ccc(Cl)cc3CCc3cccnc32)CC1 [Loratidine],% Control (PCSK9/LDLr PCA),PCSK9/LDLR complex; dose 30 μM,59%
Cc1cn(-c2cc(NC(=O)c3ccc(C)c(Nc4nccc(-c5cccnc5)n4)c3)cc(C(F)(F)F)c2)cn1 [Nilotinib],effect on formation of PCSK9/LDLR complexes / PCA signal (in words),PCSK9/LDLR complex,inhibit the formation of PCSK9/LDLR complexes
same,% Control (PCSK9/LDLr PCA),PCSK9/LDLR complex; dose 3 μM,48%
same,% Control (PCSK9/LDLr PCA),PCSK9/LDLR complex; dose 10 μM,65%
COc1cc2ncnc(Nc3cccc(Br)c3)c2cc1OC [PD-153035],x-fold increase (LDL uptake in Hepg2 cells),HepG2 cells; dose 0.2 μM,1.3 x-fold
same,x-fold increase (hepatic LDL uptake),HepG2 cells; dose 0.2 µM,1.3 x-fold
CNc1cc2c(Nc3cccc(Br)c3)ncnc2cn1 [PD-158780],x-fold increase (LDL uptake in Hepg2 cells),HepG2 cells; dose 0.3 μM,1.3 x-fold
same,x-fold increase (hepatic LDL uptake),HepG2 cells; dose 0.3 µM,1.3 x-fold
"O=C1NC(=O)C(=Cc2ccc(-c3ccc(F)cc3O)o2)S1 [PI3K gamma/CKII inhibitor, (5-(4-Fluoro-2-hydroxyphenyl)furan-2-ylmethylene)thiazolidine-2,4-dione]",% Control (PCSK9/LDLr PCA),PCSK9/LDLR complex; dose 3 μM,57%
same,% Control (PCSK9/LDLr PCA),PCSK9/LDLR complex; dose 10 μM,47%
"Oc1cccc(-c2nc(N3CCOCC3)c3sccc3n2)c1 [PI 3-K alpha Inhibitor IV, 3-(4-Morpholinothieno[3,2-d]pyrimidin-2-yl)phenol]",% Control (PCSK9/LDLr PCA),PCSK9/LDLR complex; dose 30 μM,46%
O=C1C(SCCO)=C(SCCO)C(=O)N1c1ccc(-c2ccccc2)cc1 [PM20],% Control (PCSK9/LDLr PCA),PCSK9/LDLR complex; dose 10 μM,53%
COc1ccnc(C[S+]([O-])c2nc3ccc(OC(F)F)cc3[nH]2)c1OC (centres unmarked) [Pantoprazole],% Control (PCSK9/LDLr PCA),PCSK9/LDLR complex; dose 200 μM,36%
CC[C@H](CO)Nc1nc(NCc2ccccc2)c2ncn(C(C)C)c2n1 [Roscovitine],% Control (PCSK9/LDLr PCA),PCSK9/LDLR complex; dose 40 μM,54%
Oc1ccc(-c2nc(-c3ccc(F)cc3)c(-c3ccncc3)[nH]2)cc1 [SB 202190],x-fold increase (LDL uptake in Hepg2 cells),HepG2 cells; dose 1 μM,2.7 x-fold
same,x-fold increase (hepatic LDL uptake),HepG2 cells; dose 1 µM,2.7 x-fold
C[S+]([O-])c1ccc(-c2nc(-c3ccc(F)cc3)c(-c3ccncc3)[nH]2)cc1 (centres unmarked) [SB 203580],x-fold increase (LDL uptake in Hepg2 cells),HepG2 cells; dose 3 μM,3.0 x-fold
same,x-fold increase (hepatic LDL uptake),HepG2 cells; dose 3 µM,3.0 x-fold
O=C1NC(=O)C(c2ccccc2[N+](=O)[O-])=C1Nc1ccc(O)c(Cl)c1 [SB 415286],x-fold increase (LDL uptake in Hepg2 cells),HepG2 cells; dose 25 μM,1.6 x-fold
same,x-fold increase (hepatic LDL uptake),HepG2 cells; dose 25 µM,1.6 x-fold
CN[C@H]1CC[C@@H](c2ccc(Cl)c(Cl)c2)c2ccccc21 [Sertraline],% Control (PCSK9/LDLr PCA),PCSK9/LDLR complex; dose 100 μM,46%
CN[C@@H]1C[C@H]2O[C@@](C)([C@@H]1OC)n1c3ccccc3c3c4c(c5c6ccccc6n2c5c31)C(=O)NC4 [Staurosporine],% Control (PCSK9/LDLr PCA),PCSK9/LDLR complex; dose 1 μM,34%
CC/C(=C(\c1ccccc1)c1ccc(OCCN(C)C)cc1)c1ccccc1 [Tamoxifen],% Control (PCSK9/LDLr PCA),PCSK9/LDLR complex; dose 30 μM,53%
CC(C)(C)c1ccc(C(O)CCCN2CCC(C(O)(c3ccccc3)c3ccccc3)CC2)cc1 (centres unmarked) [Terfenadine],% Control (PCSK9/LDLr PCA),PCSK9/LDLR complex; dose 10 μM,59%
"Oncostatin M (OSM): regulator of hepatic LDL uptake, purported target Gp130/OSMR/LIFR (protein, UniProt P13725 26-221, looked up) Oncostatin-M: AAIGSCSKEYRVLLGQLQKQTDLMQDTSRLLDPYIRIQGLDVPKLREHCRERPGAFPSEETLRGLGRRGFLQTLNATLGCVLHRLADLEQRLPKAQDLERSGLNIEDLEKLQMARPNILGLRNNIYCMAQLLDNSDTAEPTKAGRGASQPPTPTPASDAFQRKLEGCRFLHGYHRFMHSVGRVFSKWGESPNRSRR",x-fold increase (hepatic LDL uptake),HepG2 cells; dose 30 ng/ml,4.2 x-fold
